Tests used:
human orexin 1 receptors [1] = molecular target: T1, human orexin 1 receptors (Homo sapiens, UniProt O43613); test: Radioligand binding assay ([3H]-SB649868 competition), hOx1R; conditions: competition with about 1 nM [3H]-SB649868; CHO or HEK cell membranes expressing human orexin 1 receptor
T1 sequence (O43613 1-425): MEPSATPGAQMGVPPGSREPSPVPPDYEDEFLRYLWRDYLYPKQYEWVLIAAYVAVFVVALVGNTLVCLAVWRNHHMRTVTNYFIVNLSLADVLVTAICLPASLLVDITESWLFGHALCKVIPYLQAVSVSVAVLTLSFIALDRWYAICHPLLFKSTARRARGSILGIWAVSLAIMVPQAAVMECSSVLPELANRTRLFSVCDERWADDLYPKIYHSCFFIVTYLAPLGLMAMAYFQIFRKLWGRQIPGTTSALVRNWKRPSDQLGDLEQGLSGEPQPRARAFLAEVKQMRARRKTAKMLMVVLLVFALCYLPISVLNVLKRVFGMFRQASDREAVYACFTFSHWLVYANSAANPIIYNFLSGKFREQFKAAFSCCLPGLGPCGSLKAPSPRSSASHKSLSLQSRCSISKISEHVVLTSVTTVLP
Protocol: (§1) The cell pellet was either stored at −80° C. or used directly. Before the experiments, cell membranes were re-suspended in binding assay buffer (10 mM HEPES, 0.5% (w/v) bovine serum albumin, pH 7.5) by homogenisation with a Polytron homogeniser at 50 Hz for 20 s. Cell membranes were also used as made available by commercial providers.
(§2) Bound radioactivity was measured, and data were analysed with the program XLFIT or Graphpad Prism. Protein concentration was determined according to the Bradford/BioRad Protein Assay Kit.
(§3) In competition experiments, cell homogenates (150 μl) were incubated in assay buffer (10 mM HEPES, pH 7.5, 0.5% (w/v) bovine serum albumin, 5 mM MgCl2, 1 mMCaCl2, and tween 0.05%) for 1 h at room temperature with about 1 nM of the radioligand [^3H]-SB649868, 66 Ci/mmole, 50 μl), and with various concentrations of compounds of the invention (50 μl) in triplicates; non-specific binding was determined in the presence of almorexant (10 μM). Reactions were terminated by vacuum filtration, 3 washes of ice cold wash buffer (Tris-HCl pH 7.4/10 mM, with NaCl 154 mM). Competition data is expressed in Table 2 as Kd [μM].

human orexin 2 receptors [2] = molecular target: T2, human orexin 2 receptors (Homo sapiens, UniProt O43614); test: Calcium accumulation in cells (FLIPR), hOx2R; assay type: cell-based; conditions: cells expressing human orexin 2 receptor; inhibition of orexin A-induced calcium accumulation; Cheng and Prusoff correction
T2 sequence (O43614 1-444): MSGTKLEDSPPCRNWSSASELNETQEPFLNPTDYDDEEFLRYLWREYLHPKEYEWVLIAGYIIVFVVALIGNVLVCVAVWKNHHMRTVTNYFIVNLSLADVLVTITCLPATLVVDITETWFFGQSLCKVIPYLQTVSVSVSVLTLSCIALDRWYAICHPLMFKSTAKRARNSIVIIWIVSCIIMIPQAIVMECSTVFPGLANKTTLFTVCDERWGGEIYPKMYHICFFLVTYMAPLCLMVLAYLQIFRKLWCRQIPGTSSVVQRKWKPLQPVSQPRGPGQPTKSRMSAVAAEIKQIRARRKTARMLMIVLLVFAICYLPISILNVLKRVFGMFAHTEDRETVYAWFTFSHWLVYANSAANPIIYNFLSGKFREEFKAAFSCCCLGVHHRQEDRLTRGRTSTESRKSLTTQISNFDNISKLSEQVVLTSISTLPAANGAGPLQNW

human orexin 2 receptors [3] = molecular target: T2, human orexin 2 receptors; test: Radioligand binding assay ([3H]-SB649868 competition), hOx2R; conditions: competition with about 1 nM [3H]-SB649868; CHO or HEK cell membranes expressing human orexin 2 receptor; read-out: binding hOx2R Kd
Protocol: as §1, §2
as §3, with “μM).” for “μM). Reactions were terminated by vacuum filtration, 3 washes of ice cold wash buffer (Tris-HCl pH 7.4/10 mM, with NaCl 154 mM). Competition data is expressed in Table 2 as Kd [μM].”

human orexin 1 receptors [4] = molecular target: T1, human orexin 1 receptors; test: Calcium accumulation in cells (FLIPR), hOx1R; conditions: for inhibition at 10 µM: read-out: FLIPR hOx1R % inhibition value

Cc1ccnc(N2CCC3(CCCC(=O)N3Cc3cccc4[nH]ccc34)CC2)n1 [Example 42, 1-((1H-indol-4-yl)methyl)-9-(4-methylpyrimidin-2-yl)-1,9-diazaspiro[5.5]undecan-2-one]
Kd (human orexin 1 receptors [1]): 5230 nM | Ki (human orexin 2 receptors [2]): 26 nM | Kd (human orexin 2 receptors [3]): 140 nM | inhibition at 10 µM (human orexin 1 receptors [4]): 34%

N#Cc1ccnc(N2CCC3(CCCC(=O)N3Cc3cccc4[nH]ccc34)CC2)c1 [Example 91, 2-(1-((1H-indol-4-yl)methyl)-2-oxo-1,9-diazaspiro[5.5]undecan-9-yl)isonicotinonitrile]
Kd (human orexin 1 receptors [1]): > 10000 nM | Ki (human orexin 2 receptors [2]): 17 nM | Kd (human orexin 2 receptors [3]): 270 nM | inhibition at 10 µM (human orexin 1 receptors [4]): 26%

Cc1ccnc(N2CCC3(CCCN(Cc4c[nH]c5ccccc45)C3=O)CC2)c1 [Example 67, 2-((1H-indol-3-yl)methyl)-9-(4-methylpyridin-2-yl)-2,9-diazaspiro[5.5]undecan-1-one]
Kd (human orexin 1 receptors [1]): 3590 nM | Ki (human orexin 2 receptors [2]): 134 nM | Kd (human orexin 2 receptors [3]): 315 nM | inhibition at 10 µM (human orexin 1 receptors [4]): < 10%

Cc1cc(C)nc(N2CCC3(CCCN(Cc4cn(C)c5ccccc45)C3=O)CC2)n1 [Example 6, 9-(4,6-dimethylpyrimidin-2-yl)-2-((1-methyl-1H-indol-3-yl)methyl)-2,9-diazaspiro[5.5]undecan-1-one]
Kd (human orexin 1 receptors [1]): 4540 nM | Ki (human orexin 2 receptors [2]): 26 nM | Kd (human orexin 2 receptors [3]): 153 nM | Ki (human orexin 1 receptors [4]): 1530 nM

COc1cccc(-c2nn(C)nc2CN2CCCC3(CCN(c4nc(C)cc(C)n4)CC3)C2=O)n1 [Example 120, 9-(4,6-dimethylpyrimidin-2-yl)-2-((5-(6-methoxypyridin-2-yl)-2-methyl-2H-1,2,3-triazol-4-yl)methyl)-2,9-diazaspiro[5.5]undecan-1-one]
Kd (human orexin 1 receptors [1]): > 10000 nM | Ki (human orexin 2 receptors [2]): 32 nM | Kd (human orexin 2 receptors [3]): 197 nM | inhibition at 10 µM (human orexin 1 receptors [4]): 29%

Cc1cc(C)nc(N2CCC3(CCCN(Cc4c[nH]c5ccc(-n6cccn6)cc45)C3=O)CC2)n1 [Example 117, 2-((5-(1H-pyrazol-1-yl)-1H-indol-3-yl)methyl)-9-(4,6-dimethylpyrimidin-2-yl)-2,9-diazaspiro[5.5]undecan-1-one]
Kd (human orexin 1 receptors [1]): 1020 nM | Ki (human orexin 2 receptors [2]): 1.3 nM | Kd (human orexin 2 receptors [3]): 27 nM | Ki (human orexin 1 receptors [4]): 37 nM

N#Cc1cccc(N2CCC3(CCCC(=O)N3Cc3cccc4[nH]ccc34)CC2)n1 [Example 92, 6-(1-((1H-indol-4-yl)methyl)-2-oxo-1,9-diazaspiro[5.5]undecan-9-yl)picolinonitrile]
Kd (human orexin 1 receptors [1]): > 10000 nM | Ki (human orexin 2 receptors [2]): 104 nM | Kd (human orexin 2 receptors [3]): 1150 nM | Ki (human orexin 1 receptors [4]): 2580 nM

N#Cc1ccnc(N2CCC3(CCCN(Cc4c[nH]c5ccccc45)C3=O)CC2)n1 [Example 80, 2-(2-((1H-indol-3-yl)methyl)-1-oxo-2,9-diazaspiro[5.5]undecan-9-yl)pyrimidine-4-carbonitrile]
Kd (human orexin 1 receptors [1]): 7760 nM | Ki (human orexin 2 receptors [2]): 50 nM | Kd (human orexin 2 receptors [3]): 1100 nM | inhibition at 10 µM (human orexin 1 receptors [4]): 41%

Cc1cc(C)nc(N2CCC3(CCCN(Cc4cccc(-c5ncc(C)o5)c4)C3=O)CC2)n1 [Example 36, 9-(4,6-dimethylpyrimidin-2-yl)-2-(3-(5-methyloxazol-2-yl)benzyl)-2,9-diazaspiro[5.5]undecan-1-one]
Kd (human orexin 1 receptors [1]): 431 nM | Ki (human orexin 2 receptors [2]): 38 nM | Kd (human orexin 2 receptors [3]): 89 nM | Ki (human orexin 1 receptors [4]): 714 nM

Cc1cc(C)nc(N2CCC3(CCCN(Cc4nc(C)oc4-c4ccccc4)C3=O)CC2)n1 [Example 108, 9-(4,6-dimethylpyrimidin-2-yl)-2-((2-methyl-5-phenyloxazol-4-yl)methyl)-2,9-diazaspiro[5.5]undecan-1-one]
Kd (human orexin 1 receptors [1]): 852 nM | Ki (human orexin 2 receptors [2]): 18 nM | Kd (human orexin 2 receptors [3]): 72 nM | Ki (human orexin 1 receptors [4]): 507 nM

COc1cccc(-c2sc(C)nc2CN2CCCC3(CCN(c4nc(C)cc(C)n4)CC3)C2=O)c1 [Example 110, 9-(4,6-dimethylpyrimidin-2-yl)-2-((5-(3-methoxyphenyl)-2-methylthiazol-4-yl)methyl)-2,9-diazaspiro[5.5]undecan-1-one]
Kd (human orexin 1 receptors [1]): 236 nM | Ki (human orexin 2 receptors [2]): 3.8 nM | Kd (human orexin 2 receptors [3]): 7 nM | Ki (human orexin 1 receptors [4]): 213 nM

COCc1ccc2[nH]cc(CN3CCCC4(CCN(c5nc(C)cc(C)n5)CC4)C3=O)c2c1 [Example 116, 9-(4,6-dimethylpyrimidin-2-yl)-2-((5-(methoxymethyl)-1H-indol-3-yl)methyl)-2,9-diazaspiro[5.5]undecan-1-one]
Kd (human orexin 1 receptors [1]): 94 nM | Ki (human orexin 2 receptors [2]): 0.3 nM | Kd (human orexin 2 receptors [3]): 2 nM | Ki (human orexin 1 receptors [4]): 33 nM

Cc1cc(C#N)cc(N2CCC3(CCCN(Cc4cccc(-c5ncc(C)o5)c4)C3=O)CC2)n1 [Example 29, 2-methyl-6-(2-(3-(5-methyloxazol-2-yl)benzyl)-1-oxo-2,9-diazaspiro[5.5]undecan-9-yl)isonicotinonitrile]
Kd (human orexin 1 receptors [1]): 907 nM | Ki (human orexin 2 receptors [2]): 28 nM | Kd (human orexin 2 receptors [3]): 100 nM | Ki (human orexin 1 receptors [4]): 351 nM

Cc1cc(C)nc(N2CCC3(CCCN(Cc4n[nH]cc4-c4ccccc4)C3=O)CC2)n1 [Example 106, 9-(4,6-dimethylpyrimidin-2-yl)-2-((4-phenyl-1H-pyrazol-3-yl)methyl)-2,9-diazaspiro[5.5]undecan-1-one]
Kd (human orexin 1 receptors [1]): 1830 nM | Ki (human orexin 2 receptors [2]): 3.3 nM | Kd (human orexin 2 receptors [3]): 49 nM | Ki (human orexin 1 receptors [4]): 763 nM

COC(=O)c1ccc2[nH]cc(CN3CCCC4(CCN(c5nc(C)cc(C)n5)CC4)C3=O)c2c1 [Example 115, Methyl 3-((9-(4,6-dimethylpyrimidin-2-yl)-1-oxo-2,9-diazaspiro[5.5]undecan-2-yl)methyl)-1H-indole-5-carboxylate]
Kd (human orexin 1 receptors [1]): 52 nM | Kd (human orexin 2 receptors [3]): 3 nM

COc1ccnc(N2CCC3(CCCN(Cc4c[nH]c5ccccc45)C3=O)CC2)n1 [Example 13, 2-((1H-indol-3-yl)methyl)-9-(4-methoxypyrimidin-2-yl)-2,9-diazaspiro[5.5]undecan-1-one]
Kd (human orexin 1 receptors [1]): 924 nM | Kd (human orexin 2 receptors [3]): 74 nM | Ki (human orexin 1 receptors [4]): 527 nM

Cc1cc(C)nc(N2CCC3(CCCN(Cc4ccccc4-c4nc(C)no4)C3=O)CC2)n1 [Example 1, 9-(4,6-dimethylpyrimidin-2-yl)-2-(2-(3-methyl-1,2,4-oxadiazol-5-yl)benzyl)-2,9-diazaspiro[5.5]undecan-1-one]
Kd (human orexin 1 receptors [1]): 2020 nM | Kd (human orexin 2 receptors [3]): 66 nM

O=C1N(Cc2c[nH]c3ncccc23)CCCC12CCN(c1cncc(Cl)n1)CC2 [Example 18, 2-((1H-pyrrolo[2,3-b]pyridin-3-yl)methyl)-9-(6-chloropyrazin-2-yl)-2,9-diazaspiro[5.5]undecan-1-one]
Ki (human orexin 2 receptors [2]): 123 nM | Ki (human orexin 1 receptors [4]): 3200 nM

Cc1cc(C)nc(N2CCC3(CCCN(Cc4c(-c5ccccc5)noc4C)C3=O)CC2)n1 [Example 23, 9-(4,6-dimethylpyrimidin-2-yl)-2-((5-methyl-3-phenylisoxazol-4-yl)methyl)-2,9-diazaspiro[5.5]undecan-1-one]
Ki (human orexin 2 receptors [2]): 115 nM | Ki (human orexin 1 receptors [4]): 2880 nM

COc1cncc(N2CCC3(CCCN(Cc4c[nH]c5ccccc45)C3=O)CC2)c1 [Example 62, 2-((1H-indol-3-yl)methyl)-9-(5-methoxypyridin-3-yl)-2,9-diazaspiro[5.5]undecan-1-one]
Ki (human orexin 2 receptors [2]): 117 nM | inhibition at 10 µM (human orexin 1 receptors [4]): 31%

COc1cncc(N2CCC3(CCCN(Cc4cccc5c4OCCO5)C3=O)CC2)n1 [Example 56, 2-((2,3-dihydrobenzo[b][1,4]dioxin-5-yl)methyl)-9-(6-methoxypyrazin-2-yl)-2,9-diazaspiro[5.5]undecan-1-one]
Ki (human orexin 2 receptors [2]): 718 nM | inhibition at 10 µM (human orexin 1 receptors [4]): 35%

Source: US20120101110A1, “Diaza-spiro[5.5]undecanes” (priority 2010, published 2012)
